Test results as given in ChEMBL document CHEMBL4382269, “Discovery of Potent, Efficient, and Selective Inhibitors of Phosphoinositide 3-Kinase δ through a Deconstruction and Regrowth Approach” (J Med Chem, 2018).

Assays:
[1] = target: Phosphatidylinositol 4,5-bisphosphate 3-kinase catalytic subunit gamma isoform (Homo sapiens, UniProt P48736); test: Inhibition of PI3Kgamma (unknown origin) using PIP2 as substrate preincubated for 15 mins followed by substrate addition measured after 60 mins by HTRF method
Phosphatidylinositol 4,5-bisphosphate 3-kinase catalytic subunit gamma isoform, sequence (P48736 whole entry, canonical isoform): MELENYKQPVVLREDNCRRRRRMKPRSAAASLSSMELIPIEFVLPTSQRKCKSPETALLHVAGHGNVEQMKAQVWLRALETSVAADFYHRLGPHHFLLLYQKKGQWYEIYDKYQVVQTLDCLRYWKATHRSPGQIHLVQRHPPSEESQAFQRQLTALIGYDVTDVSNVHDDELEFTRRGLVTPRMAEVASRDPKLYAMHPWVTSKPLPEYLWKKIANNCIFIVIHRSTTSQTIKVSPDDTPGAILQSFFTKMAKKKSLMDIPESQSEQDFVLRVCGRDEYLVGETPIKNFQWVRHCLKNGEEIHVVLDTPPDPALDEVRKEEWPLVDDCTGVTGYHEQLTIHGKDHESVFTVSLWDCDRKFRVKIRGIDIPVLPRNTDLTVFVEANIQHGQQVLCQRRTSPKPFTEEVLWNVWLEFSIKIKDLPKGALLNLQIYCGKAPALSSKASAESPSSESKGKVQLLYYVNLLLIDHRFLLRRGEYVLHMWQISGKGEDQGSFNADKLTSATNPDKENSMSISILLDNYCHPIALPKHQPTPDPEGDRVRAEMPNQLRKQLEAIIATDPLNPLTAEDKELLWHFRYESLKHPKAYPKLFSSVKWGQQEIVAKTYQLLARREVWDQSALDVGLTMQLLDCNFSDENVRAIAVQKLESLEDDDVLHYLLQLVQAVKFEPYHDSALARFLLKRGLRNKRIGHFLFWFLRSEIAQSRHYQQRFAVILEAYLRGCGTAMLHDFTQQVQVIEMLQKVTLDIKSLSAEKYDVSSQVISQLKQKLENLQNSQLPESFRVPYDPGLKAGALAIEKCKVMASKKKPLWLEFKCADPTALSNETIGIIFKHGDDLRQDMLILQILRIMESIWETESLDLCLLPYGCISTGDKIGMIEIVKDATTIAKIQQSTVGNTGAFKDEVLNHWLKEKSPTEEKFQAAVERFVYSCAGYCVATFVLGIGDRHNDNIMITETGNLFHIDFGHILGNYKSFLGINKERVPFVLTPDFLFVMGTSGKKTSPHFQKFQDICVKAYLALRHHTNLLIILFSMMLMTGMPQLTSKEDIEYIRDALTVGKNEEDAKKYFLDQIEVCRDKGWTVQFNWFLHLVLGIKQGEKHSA

[2] = target: Phosphatidylinositol 4,5-bisphosphate 3-kinase catalytic subunit alpha isoform (Homo sapiens, UniProt P42336); test: Inhibition of PI3Kalpha (unknown origin) using PIP2 as substrate preincubated for 15 mins followed by substrate addition measured after 60 mins by HTRF method
Phosphatidylinositol 4,5-bisphosphate 3-kinase catalytic subunit alpha isoform, sequence (P42336 whole entry, canonical isoform): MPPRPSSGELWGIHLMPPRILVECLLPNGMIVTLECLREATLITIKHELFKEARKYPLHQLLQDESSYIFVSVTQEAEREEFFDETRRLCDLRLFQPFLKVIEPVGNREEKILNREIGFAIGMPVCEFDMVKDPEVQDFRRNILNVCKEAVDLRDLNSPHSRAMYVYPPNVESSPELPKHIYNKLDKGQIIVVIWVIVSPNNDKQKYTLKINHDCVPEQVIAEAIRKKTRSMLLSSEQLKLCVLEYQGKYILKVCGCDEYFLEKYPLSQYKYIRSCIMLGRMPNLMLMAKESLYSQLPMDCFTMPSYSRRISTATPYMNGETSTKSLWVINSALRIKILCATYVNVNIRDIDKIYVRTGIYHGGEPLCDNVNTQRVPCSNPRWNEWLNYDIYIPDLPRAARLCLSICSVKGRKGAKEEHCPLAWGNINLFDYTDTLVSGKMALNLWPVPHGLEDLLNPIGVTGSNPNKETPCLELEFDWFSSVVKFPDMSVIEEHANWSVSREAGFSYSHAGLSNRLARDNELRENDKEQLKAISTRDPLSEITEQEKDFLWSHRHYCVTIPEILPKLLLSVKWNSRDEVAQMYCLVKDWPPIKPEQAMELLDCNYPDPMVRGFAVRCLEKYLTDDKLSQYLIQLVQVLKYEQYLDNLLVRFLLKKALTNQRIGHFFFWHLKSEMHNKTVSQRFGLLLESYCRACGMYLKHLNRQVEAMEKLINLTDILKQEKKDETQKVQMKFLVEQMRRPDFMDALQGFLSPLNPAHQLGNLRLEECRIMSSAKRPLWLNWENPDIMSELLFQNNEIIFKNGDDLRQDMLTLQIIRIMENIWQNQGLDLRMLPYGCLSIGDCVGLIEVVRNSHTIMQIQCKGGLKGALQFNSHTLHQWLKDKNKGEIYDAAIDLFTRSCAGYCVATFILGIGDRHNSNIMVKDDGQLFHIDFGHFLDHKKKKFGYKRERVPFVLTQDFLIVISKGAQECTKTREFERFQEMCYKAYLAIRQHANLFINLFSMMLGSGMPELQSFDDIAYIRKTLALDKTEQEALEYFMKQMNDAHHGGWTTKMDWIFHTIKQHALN

[3] = target: Phosphatidylinositol 4,5-bisphosphate 3-kinase catalytic subunit beta isoform (Homo sapiens, UniProt P42338); test: Inhibition of PI3Kbeta (unknown origin) using PIP2 as substrate preincubated for 15 mins followed by substrate addition measured after 60 mins by HTRF method
Phosphatidylinositol 4,5-bisphosphate 3-kinase catalytic subunit beta isoform, sequence (P42338 whole entry, canonical isoform): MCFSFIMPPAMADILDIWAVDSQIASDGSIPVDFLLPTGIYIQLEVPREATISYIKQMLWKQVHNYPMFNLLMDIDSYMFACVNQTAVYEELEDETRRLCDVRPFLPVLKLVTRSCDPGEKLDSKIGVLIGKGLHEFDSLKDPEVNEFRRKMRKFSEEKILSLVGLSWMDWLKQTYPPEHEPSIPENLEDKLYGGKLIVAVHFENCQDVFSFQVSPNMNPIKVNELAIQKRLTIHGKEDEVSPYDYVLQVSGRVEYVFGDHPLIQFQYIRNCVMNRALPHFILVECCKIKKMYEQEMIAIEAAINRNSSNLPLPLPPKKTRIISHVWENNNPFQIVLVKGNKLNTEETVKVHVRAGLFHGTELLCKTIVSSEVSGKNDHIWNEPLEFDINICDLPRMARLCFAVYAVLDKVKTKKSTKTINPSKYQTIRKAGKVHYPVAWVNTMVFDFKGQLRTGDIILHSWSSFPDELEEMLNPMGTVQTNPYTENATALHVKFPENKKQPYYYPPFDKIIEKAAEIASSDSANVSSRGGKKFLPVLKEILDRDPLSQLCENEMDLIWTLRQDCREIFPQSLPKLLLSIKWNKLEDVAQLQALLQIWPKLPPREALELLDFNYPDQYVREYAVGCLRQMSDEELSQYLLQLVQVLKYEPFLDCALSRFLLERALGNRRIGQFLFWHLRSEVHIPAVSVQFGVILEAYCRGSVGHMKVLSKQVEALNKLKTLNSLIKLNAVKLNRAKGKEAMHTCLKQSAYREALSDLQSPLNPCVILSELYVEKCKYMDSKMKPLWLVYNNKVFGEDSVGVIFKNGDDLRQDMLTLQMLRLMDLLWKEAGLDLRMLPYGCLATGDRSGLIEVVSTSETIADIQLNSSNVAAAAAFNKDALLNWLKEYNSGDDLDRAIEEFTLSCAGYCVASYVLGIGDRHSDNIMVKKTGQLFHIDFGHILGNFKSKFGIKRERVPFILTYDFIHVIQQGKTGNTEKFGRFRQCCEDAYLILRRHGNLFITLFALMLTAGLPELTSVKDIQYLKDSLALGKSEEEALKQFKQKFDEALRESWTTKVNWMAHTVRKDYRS

[4] = target: T1, Phosphatidylinositol 4,5-bisphosphate 3-kinase catalytic subunit delta isoform (Homo sapiens, UniProt O00329); test: Inhibition of PI3Kdelta (unknown origin) using PIP2 as substrate preincubated for 15 mins followed by substrate addition measured after 60 mins by HTRF method
T1 sequence (O00329 whole entry): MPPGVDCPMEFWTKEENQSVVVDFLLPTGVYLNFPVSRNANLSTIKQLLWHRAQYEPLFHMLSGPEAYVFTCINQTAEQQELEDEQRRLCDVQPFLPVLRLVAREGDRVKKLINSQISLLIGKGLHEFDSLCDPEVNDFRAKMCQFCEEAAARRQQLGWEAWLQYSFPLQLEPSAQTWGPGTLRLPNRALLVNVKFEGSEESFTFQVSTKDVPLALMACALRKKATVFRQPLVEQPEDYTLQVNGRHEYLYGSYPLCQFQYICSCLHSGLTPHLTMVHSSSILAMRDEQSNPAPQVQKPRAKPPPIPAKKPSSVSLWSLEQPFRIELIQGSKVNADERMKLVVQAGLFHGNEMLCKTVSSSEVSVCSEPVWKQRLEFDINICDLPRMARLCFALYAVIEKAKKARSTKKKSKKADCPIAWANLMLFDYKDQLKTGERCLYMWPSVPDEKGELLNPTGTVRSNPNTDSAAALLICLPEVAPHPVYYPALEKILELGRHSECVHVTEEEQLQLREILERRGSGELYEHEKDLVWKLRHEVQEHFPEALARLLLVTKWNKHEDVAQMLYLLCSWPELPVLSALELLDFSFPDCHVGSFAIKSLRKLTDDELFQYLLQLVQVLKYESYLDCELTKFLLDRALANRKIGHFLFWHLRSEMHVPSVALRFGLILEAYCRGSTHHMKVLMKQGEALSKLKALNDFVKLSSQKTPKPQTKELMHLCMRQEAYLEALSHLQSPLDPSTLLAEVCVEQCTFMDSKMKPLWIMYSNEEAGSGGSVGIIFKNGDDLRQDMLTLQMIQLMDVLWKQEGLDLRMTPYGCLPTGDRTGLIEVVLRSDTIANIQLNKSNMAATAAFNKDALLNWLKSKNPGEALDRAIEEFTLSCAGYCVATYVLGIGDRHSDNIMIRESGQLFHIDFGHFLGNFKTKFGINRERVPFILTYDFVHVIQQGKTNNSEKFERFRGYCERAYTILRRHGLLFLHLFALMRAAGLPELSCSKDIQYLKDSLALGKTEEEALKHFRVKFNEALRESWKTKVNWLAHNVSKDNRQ

Row | SMILES | IC50 [1] | IC50 [2] | IC50 [3] | IC50 [4]
1 | c1cc(-c2ccc3cn[nH]c3c2)c2cc[nH]c2c1 | > 158 µM | > 158 µM | 25.1 µM | 7.94 µM
2 | CS(=O)(=O)Nc1cc(-c2ccc3cn[nH]c3c2)cnc1Cl | 2.51 µM | 6.31 µM | 3.98 µM | 0.398 µM
3 | c1cc(-c2ccncc2)c2cc[nH]c2c1 | > 50.1 µM | > 50.1 µM | > 50.1 µM | 79.4 µM
4 | c1cc(-c2nnc(CN3CCOCC3)o2)c2cn[nH]c2c1 | 25.1 µM | > 50.1 µM | > 50.1 µM | 158 µM
5 | CS(=O)(=O)Nc1cc(-c2ccc3ccncc3c2)cnc1Cl | 0.794 µM | 2.51 µM | 2.51 µM | 0.158 µM
6 | CS(=O)(=O)Nc1cc(-c2cnc(N)nc2)cnc1Cl | 0.2 µM | 1.58 µM | 0.158 µM | 0.126 µM
